Legend:
[1] = target: human α2β3γ2 receptor (α2-GABAA receptor) (Homo sapiens (Human), UniProt P18507+P47869); assay: Radioligand (3H-flunitrazepam) competition binding assay, BZD site; α2 vs α5 binding selectivity; details: ratio of Ki at α2β3γ2 to Ki at α5β3γ2
From the text: α, β and γ subunits are essential for the formation of a complete functional GABAA receptor. In this example, HEK293 cell strains stably expressing human α5-GABAA receptor (comprising α5β3γ2 subunit) and α2-GABAA receptor (comprising α2β3γ2 subunit) were constructed and screened, respectively, by liposome transfection method (Felgner, P. L., et al., Proceedings of the National Academy of Sciences, 1987, 84:7413-7417). The specific subunit protein sequences are as follows: α5 subunit (protein sequence can be found in GenBank accession number: NM_000810.3); α2 subunit (protein sequence can be found in GenBank accession number: NM_000807.4); β3 subunit (protein sequence can be found in GenBank accession number: NM_000814.5); γ2 subunit (protein sequence can be found in GenBank accession number: NM_000816.3).
The above cell lines were subcultured. Amplification of α5β3γ2-HEK293 and α2β3γ2-HEK293 cells was used to test the affinity of the compounds to benzodiazepine site (BZD) of the GABAA receptor. During the passage of α5β3γ2-HEK293 cells, some of the suspended cells were spread on a glass slide pretreated with Poly-D-Lysine for electrophysiological testing.
Flunitrazepam is a non-specific reagent that binds to the BZD site efficiently. The affinity of the compounds to the BZD sites of the human α5β3γ2 and α2β3γ2 receptors can be determined by competing the compound with ^3H-flunitrazepam (isotope ^3H-labeled flunitrazepam) for binding to these two receptors.
Membrane preparation: HEK293 cells stably expressing human α5β3γ2 receptor or α2β3γ2 receptor were collected, suspended in 50 mM Tris-HCl buffer (pH=7.4), homogenized on ice by a homogenizer for 20 seconds 10 times, and centrifuged at 4° C., 1000 g for 10 min. The supernatant was collected, and the above steps were repeated. The supernatant was centrifuged (33800 g; centrifuge purchased from Thermo, rotor model: A27-8×50) at 4° C. for 60 min, and the precipitate was resuspended in Tris buffer (50 mM Tris-HCl, 10 mM MgCl2, 0.5 mM EDTA, 10% glycerol). The precipitate was the cell membrane. Protein content was determined by BCA (Bicinchoninic Acid) method (BCA kit from Pierce (Annoron)). The cell membrane was prepared into 1 ml aliquot and stored at −80° C.
Radioligand competition binding assay: the assay was carried out in a 200 μL system (96-well plate from Agilent) with 100 μL of cell membrane. The concentration of ^3H-flunitazepam (from PerkinElmer, lot: NET567250 UC) was 1 nM and the concentration of test compound was in the range 1×10^−5-10^−6 M. Flumazenil (from Tocris; lot: 1318) was used as a control. 1 μL of 2 mM flumazenil (final concentration 10 μM) was added to the Low signal control well (Low control, LC) and 1 μL of DMSO (from Sigma aldrich, lot: 472301) was added to the High signal control well (High control, HC). The final target membrane protein concentration was 5 μg/well. All test compound sample stocks were 10 mM DMSO solutions. The working concentration of the samples is to dilute all samples with DMSO to 0.2 mM, and then perform 4-fold continuous gradient dilution for a total of 8 concentration gradients. The 96-well plate was sealed with a plate sealing membrane and then incubated on a shaker at room temperature for 1 hour. Meanwhile, GF/C filter plate was soaked with a plate soaking buffer (0.3% PEI, polyethyleneimine, purchased from Sigma aldrich, model: P314, stored at 4° C.) for at least 0.5 hours. After completion of binding incubation, the cells were collected with a cell collector onto the GF/C filter plate and washed four times with a plate washing buffer (50 mM Tris-HCl, pH 7.4, stored at 4° C.). […]

[2] = Stability in simulated gastric fluid (SGF); format: physicochemical; details: 37° C., 1000 rpm
Procedure: Simulated gastric fluid (SGF), Manufacturer: Dongguan Chuangfeng Automation Technology Co., Ltd.; Product model: CF-006.
Oscillating constant temperature metal bath, Model: Thermo; Manufacturer: Digital Skaking Drybath.
Temperature: 37° C.; rotating speed: 1000 rpm; sampling time: 0, 4 hours.
Chromatographic column: Welch Xtimate C18 3.0×100 mm, 5 μm. Mobile phase: A: 0.04% trifluoroacetic acid (TFA)/H2O (v/v), B: acetonitrile (ACN). Gradient elution was performed according to the following table, flow rate: 1.0 mL/min; injection volume: 5 μL; column temperature: 35° C.; wavelength: 254 nm.
• (a) preparation of 0.04% TFA/H2O: 400 μL of TFA was measured, placed into 1 L of H2O, and homogenously mixed; • (b) Sample stock solution: about 3 mg of test sample was weighed, and prepared into a stock solution of 10 mmol/L using DMSO; • (c) 50 μL of the sample stock solution was taken, placed into a 5 mL volumetric flask, made up to the scale with the addition of SGF, and homogenously mixed. 400 μL of the solution was taken, four samples in parallel, and shaken at 1000 rpm and 37° C.; • (d) every two samples were taken after 0 and 4 hours respectively, 400 μL of acetonitrile was added, and homogenously mixed, followed by liquid phase injection, and calculation of the change % of the main peak area in the solution after 4 hours relative to 0 hour, two average value reports being taken at each time point.

SMILES	Selectivity α2 ki/α5 ki [1] [folds]	Residual content in simulated gastric juice after 4 hours (compared with 0 hour content) [2]
Cc1onc(-c2ccc(F)cc2)c1COc1ccc(-c2nnc3n2CCS(=O)(=O)C3)cn1 [Compound 7, 3-(6-((3-(4-fluorophenyl)-5-methylisoxazol-4-yl)methoxy)pyridin-3-yl)-5,6-dihydro-8H-[1,2,4]triazolo[3,4-c][1,4]thiazine 7,7-dioxide]	11.01	–
Cc1onc(-c2ccc(F)cc2)c1COc1ccc(N2CCN3CCNC(=O)C3C2)nn1 (stereo not drawn) [Compound 10, 8-(6-((3-(4-fluorophenyl)-5-methylisoxazol-4-yl)methoxy)pyridazin-3-yl) hexahydro-2H-pyrazino[1,2-a]pyrazin-1 (6H)-one]	63.3	–
Cc1onc(-c2ccc(F)cc2)c1COc1ccc(-c2nnc3n2CCOC3)cn1 [Compound 17, 3-(6-((3-(4-fluorophenyl)-5-methylisoxazol-4-yl)methoxy)pyridin-3-yl)-5,6-dihydro-8H-[1,2,4]triazolo[3,4-c][1,4]oxazine]	23.1	65% (4 hours)
Cc1onc(-c2ccc(F)cc2)c1COc1ccc(-c2nnc3n2CCOC3)nn1 [Compound 18, 3-(6-((3-(4-fluorophenyl)-5-methylisoxazol-4-yl)methoxy)pyridazin-3-yl)-5,6-dihydro-8H-[1,2,4]triazolo[3,4-c][1,4]oxazine]	41.4	51% (4 hours)
Cc1onc(-c2ccc(F)cc2)c1COc1cnc(-c2nnc3n2CCOC3)cn1 [Compound 19, 3-(5-((3-(4-fluorophenyl)-5-methylisoxazol-4-yl)methoxy)pyrazin-2-yl)-5,6-dihydro-8H-[1,2,4]triazolo[3,4-c][1,4]oxazine]	93.8	94% (4 hours)
Cc1onc(-c2ccc(F)cc2)c1COc1cnc(-c2nnc3n2CCC3)cn1 [Compound 23, 4-(((5-(6,7-dihydro-5H-pyrrolo[2,1-c][1,2,4]triazol-3-yl)pyrazin-2-yl)oxy)methyl)-3-(4-fluorophenyl)-5-methylisoxazole]	90.2	80% (4 hours)
Cc1onc(-c2ccc(F)cc2)c1COc1cnc(-c2nnc3n2CCCOC3)cn1 [Compound 24, 3-(5-((3-(4-fluorophenyl)-5-methylisoxazol-4-yl)methoxy)pyrazin-2-yl)-6,7-dihydro-5H,9H-[1,2,4]triazolo[3,4-c][1,4]oxazepane]	39.2	–
Cc1onc(-c2ccc(F)cc2)c1COc1cnc(-c2nnc3n2CCOCC3)cn1 [Compound 33, 3-(5-((3-(4-fluorophenyl)-5-methylisoxazol-4-yl)methoxy)pyrazin-2-yl)-5,6,8,9-tetrahydro-[1,2,4]triazolo[4,3-d][1,4]oxazepane]	86.7	91% (4 hours)
Cc1onc(-c2ccc(F)cc2)c1COc1ccc(N2CCn3ccnc3C2=O)nn1 [Compound 37, 7-(6-((3-(4-fluorophenyl)-5-methylisoxazol-4-yl)methoxy)pyridazin-3-yl)-6,7-dihydroimidazo[1,2-a]pyrazin-8(5H)-one]	48.6	–
Cc1onc(-c2ccc(F)cc2)c1COc1ccc(-c2cc3n(c(=O)n2)C[C@]24CO[C@H](CN32)C4)cn1 [Compound 38]	122.2	75% (4 hours)
Cc1onc(-c2ccc(F)cc2)c1COc1ccc(-c2cc3n(c(=O)n2)CCN3C)cn1 [Compound 41, 7-(6-((3-(4-fluorophenyl)-5-methylisoxazol-4-yl)methoxy)pyridin-3-yl)-1-methyl-2,3-dihydroimidazo[1,2-c]pyrimidin-5(1H)-one]	75.8	35% (4 hours)

— US20250215016A1, “ISOXAZOLE-HETEROCYCLIC DERIVATIVE, PHARMACEUTICAL COMPOSITION AND USE” (SHANGHAI SIMR BIOTECHNOLOGY CO., LTD, priority 2022, published 2025)
